Experimental data as given in US8633245B2, “PAI-1 inhibitor” (Institute of Medicinal Molecular Design, Inc., priority 2008, dated 2014).
Like-named read-outs stand apart in the source and are kept apart here.

Target: T1, recombinant human PAI-1 (Homo sapiens, UniProt P05121)
T1 construct: purchased Molecular Innovations, Inc
Assay: Test Example 2: human PAI-1 inhibitory activity (tPA fluorogenic substrate, pH 7.4 HEPES buffer)
Assay type: biochemical
Method: 0.1 M HEPES, 0.1 M NaCl. 1 mM EDTA. 0.1% Polyethylene glycol 8,000 (Hampton Research Corporation),
2 mM Dimethyldecylphoshine oxide [Apo-10] (Fluka Corporation)

[1] = human PAI-1, compound concentration 0.1 μM
[2] = human PAI-1, compound concentration 0.3 μM
[3] = human PAI-1, compound concentration 1 μM
[4] = human PAI-1, compound concentration 3 μM
[5] = human PAI-1, calculated from the inhibition rates
[6] = human PAI-1, compound concentration 10 μM
[7] = human PAI-1, compound concentration 25 μM
[8] = read-out: Inhibition Rate of PAI-1 Activity (%)

T1 sequence (P05121 24-402): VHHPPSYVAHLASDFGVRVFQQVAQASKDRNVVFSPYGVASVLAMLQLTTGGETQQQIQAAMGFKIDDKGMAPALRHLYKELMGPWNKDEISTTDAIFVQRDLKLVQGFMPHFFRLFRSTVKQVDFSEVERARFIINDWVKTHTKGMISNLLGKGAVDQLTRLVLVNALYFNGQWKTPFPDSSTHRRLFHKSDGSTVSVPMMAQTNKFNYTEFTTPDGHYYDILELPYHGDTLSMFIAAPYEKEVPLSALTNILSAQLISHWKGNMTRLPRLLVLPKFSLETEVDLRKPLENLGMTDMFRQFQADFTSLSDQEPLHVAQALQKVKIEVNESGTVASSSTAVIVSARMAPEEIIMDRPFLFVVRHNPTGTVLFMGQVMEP

SMILES | Inhibition Rate of PAI-1 Activity (%) [1] | Inhibition Rate of PAI-1 Activity (%) [2] | Inhibition Rate of PAI-1 Activity (%) [3] | Inhibition Rate of PAI-1 Activity (%) [4] | other results
O=C(O)C(=O)N(CCCCc1ccccc1)c1ccc(N2CCSCC2)c(-c2ccc(OC(F)(F)F)cc2)c1 [Compound 675] | 10% | 14% | 95% | >99% | –
CCCCC(Oc1cc(-c2ccc(OC(F)(F)F)cc2)ccc1Oc1ccc(C(C)(C)C)cc1)C(=O)O (centres unmarked) [Compound 303] | – | – | – | – | IC50 [5]: 540 nM
CC(C)(C)c1ccc(Oc2cc(-c3ccc(C(F)(F)F)cc3)ccc2OCC(=O)O)cc1 [Compound 330] | – | – | – | – | IC50 [5]: 1030 nM
CC(C)(C)c1ccc(COc2ccc(N3CCN(c4ccc(OC(F)(F)F)cc4)CC3)cc2CCC(=O)O)cc1 [Compound 419] | – | – | 41% | 93% | Inhibition Rate of PAI-1 Activity (%) [6]: 98%; Inhibition Rate of PAI-1 Activity (%) [7]: >99%
CC(C)(C)c1ccc(CN(C(=O)C(=O)O)c2ccc(N3CCN(c4ccc(OC(F)(F)F)cc4)CC3)cc2)cc1 [Compound 628] | – | – | 40% | >99% | Inhibition Rate of PAI-1 Activity (%) [6]: >99%; Inhibition Rate of PAI-1 Activity (%) [7]: 90%
CC(C)(C)c1ccc(Oc2cc(-c3cc(Cl)ccc3Cl)ccc2CCC(=O)O)cc1 [Compound 484] | 0% | 7% | 73% | >99% | –
CCCCOc1ccc(-c2ccc(OC(F)(F)F)cc2)cc1/C=C/C(=O)O [Compound 405] | – | – | 14% | 63% | Inhibition Rate of PAI-1 Activity (%) [6]: >99%; Inhibition Rate of PAI-1 Activity (%) [7]: 95%
CCCCCOc1ccc(-c2ccc(C(F)(F)F)cc2)cc1N(CCCCc1ccccc1)C(=O)C(=O)O [Compound 390] | – | – | – | – | IC50: 650 nM
CCCCC(Oc1cc(Oc2ccc(OC(F)(F)F)cc2)ccc1OCc1ccc(C(C)(C)C)cc1)C(=O)O (centres unmarked) [Compound 308] | – | – | – | – | IC50 [5]: 670 nM
CCCCCCC(Oc1cc(-c2ccc(OC(F)(F)F)cc2)ccc1Oc1ccc(OC(F)(F)F)cc1)C(=O)O (centres unmarked) [Compound 326] | – | – | – | – | IC50 [5]: 330 nM
CCCCCOc1cc(N(CCCCc2ccccc2)C(=O)C(=O)O)ccc1-c1ccc(OC(F)(F)F)cc1 [Compound 654] | 4% | 19% | >99% | >99% | –
Cc1cccc(-c2ccc(Oc3ccc(C(C)(C)C)cc3)c(OCC(=O)O)c2)c1 [Compound 316] | – | – | – | – | IC50 [5]: 1780 nM
CCCCCOc1cc(-c2cccc(OC(F)(F)F)c2)ccc1N(CCCCc1ccccc1)C(=O)C(=O)O [Compound 393] | – | – | – | – | IC50: 690 nM
CC(C)(C)c1cccc(Oc2cc(-c3cccc(OC(F)(F)F)c3)ccc2/C=C/C(=O)O)c1 [Compound 514] | 21% | 22% | 96% | >99% | –
CC(C)(C)Oc1ccc(-c2ccc(OC(F)(F)F)cc2)cc1N(CCCCc1ccccc1)C(=O)C(=O)O [Compound 373] | – | – | – | – | IC50: 1580 nM
CCCCN(CC(=O)O)c1cc(-c2ccc(OC(F)(F)F)cc2)ccc1OCCCCc1ccccc1 [Compound 433] | 13% | 6% | 41% | 98% | –

SMILES | Inhibition Rate of PAI-1 Activity (%) [1] | Inhibition Rate of PAI-1 Activity (%) [2] | Inhibition Rate of PAI-1 Activity (%) [3] | Inhibition Rate of PAI-1 Activity (%) [4] | other results
CC(C)(C)c1ccc(Oc2ccc(-c3ccc(OC(F)(F)F)cc3)cc2OCC(=O)O)cc1 [Compound 302] | – | – | – | – | IC50 [5]: 1700 nM
CCCCCOc1cc(-c2cccc(C)c2)ccc1N(CCCCc1ccccc1)C(=O)C(=O)O [Compound 376] | – | – | – | – | IC50: 790 nM
CCCCCCCCCCCCCCCOc1cc(-c2ccc(OC(F)(F)F)cc2)ccc1N(CCCCc1ccccc1)C(=O)C(=O)O [Compound 385] | – | – | – | – | IC50: < 100 nM; inhibition at 0.3 µM [8]: > 99%; inhibition at 1 µM [8]: > 99%; inhibition at 3 µM [8]: > 99%
CC(C)(C)c1ccc(Oc2cc(-c3ccc(F)cc3)ccc2OCC(=O)O)cc1 [Compound 459] | 26% | 31% | 42% | 86% | –
CC(C)(C)c1ccc(Oc2cc(-c3ccc(OC(F)(F)F)cc3)ccc2N(CCCCc2ccccc2)C(=O)C(=O)O)cc1 [Compound 635] | 14% | 30% | 45% | 91% | –
CC(C)(C)c1ccc(CN(C(=O)CCCC(=O)O)c2ccc(-c3ccc(OC(F)(F)F)cc3)cc2)cc1 [Compound 604] | – | – | 0% | 20% | Inhibition Rate of PAI-1 Activity (%) [6]: 36%; Inhibition Rate of PAI-1 Activity (%) [7]: 46%
CC(C)(C)c1ccc(Sc2cc(-c3ccc(OC(F)(F)F)cc3)ccc2CCC(=O)O)cc1 [Compound 517] | 20% | 50% | 95% | >99% | –
O=C(O)C(=O)N(CCCCc1ccccc1)c1cc(-c2ccc(OC(F)(F)F)cc2)ccc1OCCCCC(F)(F)F [Compound 381] | – | – | – | – | IC50: 1040 nM; inhibition at 3 µM [8]: > 99%
O=C(O)/C=C/c1ccc(-c2ccc(OC(F)(F)F)cc2)cc1OC(c1ccccc1)c1ccccc1 [Compound 506] | 2% | 9% | 78% | >99% | –
CC(C)(C)c1ccc(Oc2cc(-c3ccc(C#N)cc3)ccc2OCC(=O)O)cc1 [Compound 471] | 5% | 7% | 11% | 49% | –
CC(C)(C)c1ccc(Oc2cc(Nc3ccc(OC(F)(F)F)cc3)ccc2/C=C/C(=O)O)cc1 [Compound 531] | 3% | 38% | 94% | 96% | –
O=C(O)C(=O)N(CCCCc1ccccc1)c1cc(-c2ccc(OC(F)(F)F)cc2)ccc1OCCC(F)(F)F [Compound 383] | – | – | – | – | IC50: 1340 nM
CCCCCOc1ccc(-c2ccc(OC(F)(F)F)cc2)cc1N(CCCOc1ccccc1)C(=O)C(=O)O [Compound 356] | – | – | – | – | IC50 [5]: 930 nM; inhibition at 3 µM [8]: > 99%
Cc1cc(C)cc(-c2ccc(CCC(=O)O)c(Oc3ccc(C(C)(C)C)cc3)c2)c1 [Compound 498] | 1% | 4% | 44% | >99% | –
CCCCCOc1ccc(-c2ccc(OC(F)(F)F)cc2)cc1N(CCCCc1ccccc1)CC(=O)O [Compound 640] | 0% | 19% | 92% | 92% | –
CC(C)(C)c1ccc(Oc2ccc(-c3cccc(OC(F)(F)F)c3)cc2OCC(=O)O)cc1 [Compound 329] | – | – | – | – | IC50 [5]: 1720 nM

More lines, main results first:

Inhibition Rate of PAI-1 Activity (%) [1] | Inhibition Rate of PAI-1 Activity (%) [2] | Inhibition Rate of PAI-1 Activity (%) [3] | Inhibition Rate of PAI-1 Activity (%) [4] | SMILES | other results
1% | 1% | 74% | 96% | CCCCC(Nc1cc(-c2ccc(OC(F)(F)F)cc2)ccc1Oc1ccc(C(C)(C)C)cc1)C(=O)O (centres unmarked) [Compound 423] | –
19% | 16% | 70% | >99% | CCCCc1ccc(Oc2cc(-c3ccc(OC(F)(F)F)cc3)ccc2OCC(=O)O)cc1 [Compound 481] | –
0% | 12% | 87% | 98% | CC(C)(C)c1ccc(Oc2cc(Oc3ccc(OC(F)(F)F)cc3)ccc2OCC(=O)O)cc1 [Compound 538] | –
25% | 83% | 97% | 97% | CCCCN(CC(=O)O)c1ccc(-c2ccc(OC(F)(F)F)cc2)cc1Oc1ccc(C(C)(C)C)cc1 [Compound 533] | –
9% | 11% | 58% | 98% | CC(C)(C)c1ccc(Oc2cc(-c3ccc(OC(F)(F)F)cc3)ccc2/C=C\C(=O)O)cc1 [Compound 450] | –
12% | 29% | 81% | 98% | CCCN(CC(=O)O)c1cc(-c2ccc(OC(F)(F)F)cc2)ccc1Oc1ccc(C(C)(C)C)cc1 [Compound 435] | –
13% | 21% | 84% | >99% | CN(CC(=O)O)c1ccc(-c2ccc(OC(F)(F)F)cc2)cc1Oc1ccc(C(C)(C)C)cc1 [Compound 534] | –
16% | 57% | 94% | 93% | CCCCC(C(=O)O)N(Cc1ccc(C(C)(C)C)cc1)c1ccc(-c2ccc(OC(F)(F)F)cc2)cc1 (centres unmarked) [Compound 642] | –
25% | 82% | >99% | >99% | CCC(CC)Oc1ccc(-c2ccc(/C=C/C(=O)O)c(Oc3ccc(C(C)(C)C)cc3)c2)cc1 [Compound 521] | –
4% | 23% | 86% | 89% | CCCCCOc1cc(-c2ccc(OC(F)(F)F)cc2)ccc1CN(C(=O)C(=O)O)c1ccc(C(C)(C)C)cc1 [Compound 648] | –
